Results published in patent publication US20230271949A1, “GLP-1R MODULATING COMPOUNDS” (ASCLETIS BIOSCIENCE CO., LTD., priority 2022, published 2023).

target: GLP-1R (Homo sapiens, UniProt P43220); experiment: GLP-1R agonist cAMP stimulation assay (HTRF cAMP); format: cell-based; settings: HEK293 cell line expressing GLP-1 target; HTRF cAMP agonist mode, 30 min at RT
Experimental: cAMP Detection Kit, Cisbio (Cat #62AM4PEJ)
The cell line was constructed by WuXi.
2. Methods • a) The compound source plate preparation: • The reference 7-37 was diluted from 500 nM, 4-fold, 10 points in DMSO using Bravo. The compounds were diluted from […], 3-fold, 10 points in DMSO using Bravo. • b) Transfer of compounds: • 1) Use Echo transfer 100 nL cpd to the OptiPlate-384 plate. • 2) Spin the plates at 1000 rpm for 5 sec. • c) Cell suspension preparation: • 1) Thaw 1 vial of GLP-1 cells rapidly in 37° C. water bath. • 2) Transfer cell suspension into 10 ml of HBSS in a 15 ml conical tube. • 3) Centrifuge cells at 1000 rpm for 5 min at room temperature to pellet cells • 4) Gently aspirate supernatant being careful not to aspirate cells. • 5) Flick pellet to loose cells and re-suspend the cell pellet in 10 ml HBSS. Use a sterile pipette to pipette up and down to dislodge clumps. • 6) Count cells for concentration and to determine cell viability on Vi-cell. • 7) Re-suspend the GLP-1 cells in assay buffer at a concentration of 1.0×E5/mL cells. • 8) Transfer 10 μL GLP-1 cells to OptiPlate-384 plate. • d) HTRF cAMP Assay for agonist: • 1) Incubate the plate at RT for 30 min before adding the detection reagent. • 2) Add 10 μL each of detection reagent using Electric Multiple Channel Pipette. • 3) Cover the 384 plate with TopSeal-A film and incubate for 60 minutes at room temperature. • Remove the TopSeal-A, read on EnVision.
Create a new log (Inhibitor) vs response—Variable slope mode in Prism5.0 software, substitute the standard curve concentration (x) and its corresponding 665/615 data (y) into the model, convert the standard curve concentration (abscissa) by x=log(x), and make the standard curve through the converted xy.
Transform the data of 665/615 in the whole plate into a column of data, substitute it into y in the table of standard curve concentration (x) and 665/615 data (y), copy the x (interpolatedx) corresponding to automatic conversion by the software into a table, convert it into cAMP level by the formula x=10^(x), and reset the data into 384 distribution.
% Activity=(cAMP level−LC)/(HC−LC)*100% • Z factor: 1-3*(STD_HC+[…])/(HC-LC) • Assay Window: HC/LC • LC: The average cAMP level of adding DMSO wells • HC: The average cAMP level of adding the top concentration of reference compounds wells.
Create a new […] in Prism5.0 software, substitute the sample concentration (x) and its corresponding % Activity data (y) into the model, convert the standard curve concentration (abscissa) to x=log(x), and make the sample curve through the converted xy.

GLP-1R, sequence (P43220 24-463): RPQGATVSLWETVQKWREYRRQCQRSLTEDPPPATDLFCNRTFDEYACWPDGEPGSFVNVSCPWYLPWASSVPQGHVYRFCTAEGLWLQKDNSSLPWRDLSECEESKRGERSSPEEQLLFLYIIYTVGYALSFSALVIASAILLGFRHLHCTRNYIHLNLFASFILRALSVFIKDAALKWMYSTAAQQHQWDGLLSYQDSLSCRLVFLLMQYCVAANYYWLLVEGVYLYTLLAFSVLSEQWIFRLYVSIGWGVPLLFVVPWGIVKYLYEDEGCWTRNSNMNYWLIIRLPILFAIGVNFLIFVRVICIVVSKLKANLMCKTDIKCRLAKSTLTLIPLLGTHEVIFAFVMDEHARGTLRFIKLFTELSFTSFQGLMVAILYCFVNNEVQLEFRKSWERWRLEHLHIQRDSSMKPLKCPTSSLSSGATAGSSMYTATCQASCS

EC50	SMILES
16.9 nM	O=C(Nc1ccc2ncsc2c1)c1ccc2c(c1)nc(CN1CCC(c3cccc(OCc4ccc(Cl)cc4F)n3)CC1)n2C[C@@H]1CCO1 [Compound 98]
42.4 nM	Cn1cc2cc(NC(=O)c3ccc4c(c3)nc(CN3CCC(c5cccc(OCc6ccc(Cl)cc6F)n5)CC3)n4C[C@@H]3CCO3)ccc2n1 [Compound 99]
1.33 nM	O=C(Nc1cc(F)c2[nH]ncc2c1)c1ccc2c(c1)nc(CN1CCC(c3cccc(OCc4ccc(Cl)cc4F)n3)CC1)n2C[C@@H]1CCO1 [Compound 102]
1.05 nM	O=C(Nc1cc(F)c2c(c1)C1(CC1)C(=O)N2)c1ccc2c(c1)nc(CN1CCC(c3cccc(OCc4ccc(Cl)cc4F)n3)CC1)n2C[C@@H]1CCO1 [Compound 104]
2.31 nM	Cc1n[nH]c2c(C(F)(F)F)cc(NC(=O)c3ccc4c(c3)nc(CN3CCC(c5cccc(OCc6ccc(Cl)cc6F)n5)CC3)n4C[C@@H]3CCO3)cc12 [Compound 106]
1.83 nM	O=C(Nc1cc(C(F)(F)F)c2c(c1)C1(CC1)C(=O)N2)c1ccc2c(c1)nc(CN1CCC(c3cccc(OCc4ccc(Cl)cc4F)n3)CC1)n2C[C@@H]1CCO1 [Compound 107]
2.39 nM	O=C(Nc1cc(C(F)(F)F)c2[nH]ncc2c1)c1ccc2c(c1)nc(CN1CCC(c3cccc(OCc4ccc(Cl)cc4F)n3)CC1)n2C[C@@H]1CCO1 [Compound 108]
47 nM	Cc1nn(C)c2ccc(NC(=O)c3ccc4c(c3)nc(CN3CCC(c5cccc(OCc6ccc(Cl)cc6F)n5)CC3)n4C[C@@H]3CCO3)cc12 [Compound 109]
4.45 nM	Cc1n[nH]c2c(Cl)cc(NC(=O)c3ccc4c(c3)nc(CN3CCC(c5cccc(OCc6ccc(Cl)cc6F)n5)CC3)n4C[C@@H]3CCO3)cc12 [Compound 110]
2.34 nM	O=C(Nc1ccc2[nH]nc(C(F)(F)F)c2c1)c1ccc2c(c1)nc(CN1CCC(c3cccc(OCc4ccc(Cl)cc4F)n3)CC1)n2C[C@@H]1CCO1 [Compound 111]
6.18 nM	O=C(Nc1ccc2[nH]nc(C3CC3)c2c1)c1ccc2c(c1)nc(CN1CCC(c3cccc(OCc4ccc(Cl)cc4F)n3)CC1)n2C[C@@H]1CCO1 [Compound 112]
4.38 nM	O=C(Nc1cc(C(F)(F)F)c2[nH]nc(C3CC3)c2c1)c1ccc2c(c1)nc(CN1CCC(c3cccc(OCc4ccc(Cl)cc4F)n3)CC1)n2C[C@@H]1CCO1 [Compound 113]
1.04 nM	Cc1cc(NC(=O)c2ccc3c(c2)nc(CN2CCC(c4cccc(OCc5ccc(Cl)cc5F)n4)CC2)n3C[C@@H]2CCO2)cc2c(C3CC3)n[nH]c12 [Compound 114]
0.87 nM	O=C(Nc1ccc2[nH]nc(C(F)F)c2c1)c1ccc2c(c1)nc(CN1CCC(c3cccc(OCc4ccc(Cl)cc4F)n3)CC1)n2C[C@@H]1CCO1 [Compound 115]
0.92 nM	Cc1cc(NC(=O)c2ccc3c(c2)nc(CN2CCC(c4cccc(OCc5ccc(Cl)cc5F)n4)CC2)n3C[C@@H]2CCO2)cc2c(C(F)F)n[nH]c12 [Compound 116]
10.2 nM	CCc1cc(NC(=O)c2ccc3c(c2)nc(CN2CCC(c4cccc(OCc5ccc(Cl)cc5F)n4)CC2)n3C[C@@H]2CCO2)cc2c(C)n[nH]c12 [Compound 117]
8.31 nM	Cc1n[nH]c2c(C3CC3)cc(NC(=O)c3ccc4c(c3)nc(CN3CCC(c5cccc(OCc6ccc(Cl)cc6F)n5)CC3)n4C[C@@H]3CCO3)cc12 [Compound 118]
0.63 nM	Cc1n[nH]c2c(C(F)F)cc(NC(=O)c3ccc4c(c3)nc(CN3CCC(c5cccc(OCc6ccc(Cl)cc6F)n5)CC3)n4C[C@@H]3CCO3)cc12 [Compound 119]
15.3 nM	Cc1cc(NC(=O)c2ccc3c(c2)nc(CN2CCC(c4cccc(OCc5ccc(Cl)cc5F)n4)CC2)n3C[C@@H]2CCO2)c(C)c2c(C)n[nH]c12 [Compound 120]
4.23 nM	Cc1cc(NC(=O)c2ccc3c(c2)nc(CN2CCC(c4cccc(OCc5ccc(Cl)cc5F)n4)CC2)n3C[C@@H]2CCO2)c(F)c2c(C)n[nH]c12 [Compound 121]
3.21 nM	Cc1n[nH]c2ccc(NC(=O)c3ccc4c(c3)nc(CN3CCC(c5cccc(OCc6ccc(Cl)cc6F)n5)CC3)n4C[C@@H]3CCO3)c(F)c12 [Compound 122]
